Values after ≈ are worked out from the molar mass of the structure shown.
Tests used:
Type in all cases: cell-based
S. pyogenes [SPYO] = test: Reference broth microdilution susceptibility testing, Canadian isolates
Text: (§1) To determine a contemporary susceptibility (S) spectrum pattern. 153 GP isolates (123 S. aureus, 15 coagulase-negative staphylococci [CoNS] and 15 S. pyogenes [SPYO]) were collected from 5 Canadian medical centers between 2001 and 2006.

S. aureus [1] = test: as above; details: overall S. aureus population
Text: as §1

S. aureus [2] = test: MIC population distribution, 217 S. aureus Canadian isolates; details: 217 Canadian isolates
[3] = test system: S. aureus MRSA (Mec A genotype); test: Agar dilution MIC against resistant S. aureus; details: Staphylococcus aureus
Text: (§2) The in vitro activity of CEM-102 was compared with that of telithromycin, azithromycin, erythromycin, levofloxacin, linezolid, and doxycycline against a total of 145 resistant S. aureus by agar dilution procedures (CLSI, M7-A7, M100-S18). The tested strains included S. aureus MRSA (Mec A genotype; 100 isolates), macrolide-resistant (ermA, B, C genotype or MLSb-resistant; 25), and ciprofloxacin-resistant (gyrA and parC genotype; 20).

[4] = test system: ciprofloxacin-resistant (gyrA and parC genotype) S. aureus; test: Agar dilution MIC against resistant S. aureus; details: Staphylococcus aureus
Text: as §2

[5] = test system: macrolide-resistant S. aureus (ermA, B, C genotype or MLSb-resistant); test: Agar dilution MIC against resistant S. aureus; details: Staphylococcus aureus
Text: as §2

[6] = Synergy testing by the checkerboard method, FA/co-drug; details: FA combined with the co-drug
Protocol: CLSI broth microdilution (BMD) and anaerobic agar dilution (AD) methods were performed. Modifications of standard test methods included adding 10% human serum, adjusting the medium pH to 5, 6, and 8, and synergy was assessed by the checkerboard method. Mutational rates to R were determined at 4×.

CCC[C@@H]1C[C@@H](C(=O)N[C@@H]([C@H]2O[C@H](SC)[C@H](O)[C@@H](O)[C@H]2O)[C@H](C)Cl)N(C)C1 [clindamycin]
R rate (S. pyogenes [SPYO]): 13.3% | R rate (S. aureus [1]): 28.5% | resistance rate (S. aureus [2]): 30.9%

CC[C@H]1OC(=O)[C@H](C)C(=O)[C@H](C)[C@@H](O[C@@H]2O[C@H](C)C[C@H](N(C)C)[C@H]2O)[C@](C)(OC)C[C@@H](C)C(=O)[C@H](C)[C@H]2N(CCCCn3cnc(-c4cccnc4)c3)C(=O)O[C@]12C [telithromycin]
MIC90 [3]: 0.06 mg/L (≈ 0.0739 µM) | MIC90 [4]: 0.06 mg/L (≈ 0.0739 µM) | MIC90 [5]: 4 mg/L (≈ 4.93 µM)

CC[C@H]1OC(=O)[C@H](C)[C@@H](O[C@H]2C[C@@](C)(OC)[C@@H](O)[C@H](C)O2)[C@H](C)[C@@H](O[C@@H]2O[C@H](C)C[C@H](N(C)C)[C@H]2O)[C@](C)(O)C[C@@H](C)C(=O)[C@H](C)[C@@H](O)[C@]1(C)O [erythromycin]
MIC90 [3]: > 32 mg/L | MIC90 [4]: > 32 mg/L | MIC90 [5]: > 32 mg/L | R rate (S. pyogenes [SPYO]): 20.0% | R rate (S. aureus [1]): 52.0% | resistance rate (S. aureus [2]): 52.1%

CN[C@H](CC(C)C)C(=O)N[C@H]1C(=O)N[C@@H](CC(N)=O)C(=O)N[C@H]2C(=O)N[C@H]3C(=O)N[C@H](C(=O)N[C@H](C(=O)O)c4cc(O)cc(O)c4-c4cc3ccc4O)[C@H](O)c3ccc(c(Cl)c3)Oc3cc2cc(c3O[C@@H]2O[C@H](CO)[C@@H](O)[C@H](O)[C@H]2O[C@H]2C[C@](C)(N)[C@H](O)[C@H](C)O2)Oc2ccc(cc2Cl)[C@H]1O [Vancomycin]
Additive (number) [6]: 2 | Antagonism (number) [6]: 0 | Indeterminate (number) [6]: 0 | Indifferent (number) [6]: 4 | Synergy Complete (number) [6]: 0 | Synergy Partial (number) [6]: 0

Gentamicin
Additive (number) [6]: 3 | Antagonism (number) [6]: 0 | Indeterminate (number) [6]: 0 | Indifferent (number) [6]: 1 | Synergy Complete (number) [6]: 1 | Synergy Partial (number) [6]: 1

CC(=O)NC[C@H]1CN(c2ccc(N3CCOCC3)c(F)c2)C(=O)O1 [linezolid]
MIC90 [3]: 2 mg/L (≈ 5.93 µM) | MIC90 [4]: 2 mg/L (≈ 5.93 µM) | MIC90 [5]: 2 mg/L (≈ 5.93 µM)

C[C@H]1COc2c(N3CCN(C)CC3)c(F)cc3c(=O)c(C(=O)O)cn1c23 [Levofloxacin]
MIC90 [3]: 16 mg/L (≈ 44.3 µM) | MIC90 [4]: > 32 mg/L | MIC90 [5]: 4 mg/L (≈ 11.1 µM) | Additive (number) [6]: 0 | Antagonism (number) [6]: 0 | Indeterminate (number) [6]: 2 | Indifferent (number) [6]: 4 | Synergy Complete (number) [6]: 0 | Synergy Partial (number) [6]: 0

CC[C@H]1OC(=O)[C@H](C)[C@@H](O[C@H]2C[C@@](C)(OC)[C@@H](O)[C@H](C)O2)[C@H](C)[C@@H](O[C@@H]2O[C@H](C)C[C@H](N(C)C)[C@H]2O)[C@](C)(O)C[C@@H](C)CN(C)[C@H](C)[C@@H](O)[C@]1(C)O [azithromycin]
MIC90 [3]: > 32 mg/L | MIC90 [4]: 16 mg/L (≈ 21.4 µM) | MIC90 [5]: > 32 mg/L

CO[C@H]1/C=C/O[C@@]2(C)Oc3c(C)c(O)c4c(O)c(c(/C=N/N5CCN(C)CC5)c(O)c4c3C2=O)NC(=O)/C(C)=C\C=C\[C@H](C)[C@H](O)[C@@H](C)[C@@H](O)[C@@H](C)[C@H](OC(C)=O)[C@@H]1C [Rifampin]
Additive (number) [6]: 1 | Antagonism (number) [6]: 0 | Indeterminate (number) [6]: 0 | Indifferent (number) [6]: 0 | Synergy Complete (number) [6]: 0 | Synergy Partial (number) [6]: 5

Cc1onc(-c2ccccc2)c1C(=O)N[C@@H]1C(=O)N2[C@@H]1SC(C)(C)[C@@H]2C(=O)O [Oxacillin]
Additive (number) [6]: 1 | Antagonism (number) [6]: 0 | Indeterminate (number) [6]: 1 | Indifferent (number) [6]: 3 | Synergy Complete (number) [6]: 0 | Synergy Partial (number) [6]: 1

C[C@H]1c2cccc(O)c2C(=O)C2=C(O)[C@]3(O)C(=O)C(C(N)=O)=C(O)[C@@H](N(C)C)[C@@H]3[C@@H](O)[C@@H]21 [doxycycline]
MIC90 [3]: 1 mg/L (≈ 2.25 µM) | MIC90 [4]: 1 mg/L (≈ 2.25 µM)

— patent US20190388437A1, “COMPOSITIONS AND METHODS FOR TREATING BONE AND JOINT INFECTIONS” (priority 2014, published 2019)
